Measured values reported in PubChem BioAssay AID1845206 (Molecular Pharmacology Branch, DTP, NCI, 2023).

Tested on: NCI-H1618 multicellular tumor spheroid viability
Assay: Anticancer human tumor NCI-H1618 cell line growth inhibition;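 further: spheroids exposed to agents for 7 days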
Details: for IC50: curve of first compound; for viability, T/C: stronger effect = lower value
How it was run: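 Single agents and combinations were tested on spheroids built from tumor cells plus HUVEC and hMSC, at half-log dilutions starting at or near clinical Cmax, else 10 microM; final DMSO 0.25% (v/v).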

COc1cc(C)[nH]c(=O)c1CN1CCc2c(Cl)cc(C(OC)C3COC3)c(Cl)c2C1=O (stereo not given) + COc1cc2c(cc1O)CCNC21CSC2c3c(OC(C)=O)c(C)c4c(c3C(COC1=O)N1C(O)C3Cc5cc(C)c(OC)c(O)c5C(C21)N3C)OCO4
IC50 (second compound 30 pM): > 10000 nM | IC50 (second compound 94.9 pM): 527 nM | IC50 (second compound 0.0003 µM): < 31.6 nM | IC50 (second compound 0.000949 µM): < 31.6 nM | IC50 (second compound 0.003 µM): < 31.6 nM | viability, T/C (second compound 30 pM, first compound 0.0316 µM): 73.8% | viability, T/C (second compound 30 pM, first compound 0.1 µM): 74.9% | viability, T/C (second compound 30 pM, first compound 0.316 µM): 61.7% | viability, T/C (second compound 30 pM, first compound 1 µM): 73.8% | viability, T/C (second compound 30 pM, first compound 3.16 µM): 74.4% | viability, T/C (second compound 30 pM, first compound 10 µM): 67.9% | viability, T/C (second compound 94.9 pM, first compound 0.0316 µM): 86.8% | viability, T/C (second compound 94.9 pM, first compound 0.1 µM): 65.9% | viability, T/C (second compound 94.9 pM, first compound 0.316 µM): 48.3% | viability, T/C (second compound 94.9 pM, first compound 1 µM): 57.5% | viability, T/C (second compound 94.9 pM, first compound 3.16 µM): 31.9% | viability, T/C (second compound 94.9 pM, first compound 10 µM): 38.4% | viability, T/C (second compound 0.0003 µM, first compound 0.0316 µM): 14.9% | viability, T/C (second compound 0.0003 µM, first compound 0.1 µM): 19.3% | viability, T/C (second compound 0.0003 µM, first compound 0.316 µM): 5.64% | viability, T/C (second compound 0.0003 µM, first compound 1 µM): 2.68% | viability, T/C (second compound 0.0003 µM, first compound 3.16 µM): 1.81% | viability, T/C (second compound 0.0003 µM, first compound 10 µM): 3.33% | viability, T/C (second compound 0.000949 µM, first compound 0.0316 µM): 5.55% | viability, T/C (second compound 0.000949 µM, first compound 0.1 µM): 2.33% | viability, T/C (second compound 0.000949 µM, first compound 0.316 µM): 3.62% | viability, T/C (second compound 0.000949 µM, first compound 1 µM): 3.05% | viability, T/C (second compound 0.000949 µM, first compound 3.16 µM): 3.08% | viability, T/C (second compound 0.000949 µM, first compound 10 µM): 3.38% | viability, T/C (second compound 0.003 µM, first compound 0.0316 µM): 3.07% | viability, T/C (second compound 0.003 µM, first compound 0.1 µM): 2.73% | viability, T/C (second compound 0.003 µM, first compound 0.316 µM): 3.33% | viability, T/C (second compound 0.003 µM, first compound 1 µM): 2.29% | viability, T/C (second compound 0.003 µM, first compound 3.16 µM): 1.94% | viability, T/C (second compound 0.003 µM, first compound 10 µM): 2.51%

CC1COCCN1c1cc(-c2ccnn2C)c2ccnc(-c3ccn[nH]3)c2n1 (stereo not given) + Cn1nnc2c(C(N)=O)ncn2c1=O
IC50 (second compound 1 µM): < 31.6 nM | IC50 (second compound 3.16 µM): < 31.6 nM | IC50 (second compound 10 µM): < 31.6 nM | IC50 (second compound 31.6 µM): < 31.6 nM | IC50 (second compound 100 µM): < 31.6 nM | viability, T/C (second compound 1 µM, first compound 0.0316 µM): 3.35% | viability, T/C (second compound 1 µM, first compound 0.1 µM): 3.94% | viability, T/C (second compound 1 µM, first compound 0.316 µM): 1.49% | viability, T/C (second compound 1 µM, first compound 1 µM): 2.09% | viability, T/C (second compound 1 µM, first compound 3.16 µM): 1.02% | viability, T/C (second compound 1 µM, first compound 10 µM): 3.48% | viability, T/C (second compound 3.16 µM, first compound 0.0316 µM): 10.3% | viability, T/C (second compound 3.16 µM, first compound 0.1 µM): 1.64% | viability, T/C (second compound 3.16 µM, first compound 0.316 µM): 1.41% | viability, T/C (second compound 3.16 µM, first compound 1 µM): 1.67% | viability, T/C (second compound 3.16 µM, first compound 3.16 µM): 1.26% | viability, T/C (second compound 3.16 µM, first compound 10 µM): 2.12% | viability, T/C (second compound 10 µM, first compound 0.0316 µM): 1.82% | viability, T/C (second compound 10 µM, first compound 0.1 µM): 13.4% | viability, T/C (second compound 10 µM, first compound 0.316 µM): 1.48% | viability, T/C (second compound 10 µM, first compound 1 µM): 1.19% | viability, T/C (second compound 10 µM, first compound 3.16 µM): 1.65% | viability, T/C (second compound 10 µM, first compound 10 µM): 2.14% | viability, T/C (second compound 31.6 µM, first compound 0.0316 µM): 1.23% | viability, T/C (second compound 31.6 µM, first compound 0.1 µM): 1.26% | viability, T/C (second compound 31.6 µM, first compound 0.316 µM): 1.34% | viability, T/C (second compound 31.6 µM, first compound 1 µM): 1.03% | viability, T/C (second compound 31.6 µM, first compound 3.16 µM): 1.36% | viability, T/C (second compound 31.6 µM, first compound 10 µM): 1.55% | viability, T/C (second compound 100 µM, first compound 0.0316 µM): 1.42% | viability, T/C (second compound 100 µM, first compound 0.1 µM): 1.23% | viability, T/C (second compound 100 µM, first compound 0.316 µM): 1.48% | viability, T/C (second compound 100 µM, first compound 1 µM): 1.42% | viability, T/C (second compound 100 µM, first compound 3.16 µM): 13.7% | viability, T/C (second compound 100 µM, first compound 10 µM): 1.05%
